Test results published in patent US20220347071A1, “USE OF CANNABINOIDS IN THE TREATMENT OF ORAL INFLAMMATION AND PERIODONTAL DISEASE” (priority 2021, published 2022).
Entries after “also recorded” stand apart in the source; their conditions may differ.

Assays:
PGE2 = PGE2 release by PMA-stimulated NHEK (ELISA); type: cell-based, human; settings: for PGE2 release, % of the control: highest tested concentration; for PGE2 release, % of the control / Effect on PGE2 release (in words) / PGE2 release, % of relative inhibition: PMA-stimulated keratinocytes; for PGE2 release, % Relative inhibition: NHEK, PMA 0.5 μg/ml, 24 h; for PGE2 release, % of relative inhibition: concentration not given
Protocol: (§1) The effects on normal human epidermal keratinocytes (NHEK) were measured by assessing IL-8 and PGE2 release by PMA-stimulated NHEK using specific ELISA kits.
(§2) Normal human epidermal keratinocytes (NHEK): • Cell type: NHEK • Culture conditions: 37° C., 5% CO2 • Culture medium: Keratinocyte SFM supplemented with Epidermal Growth Factor (EGF) 0.25 ng/ml • Pituitary extract (PE) 25 μg/ml • Gentamycin 25 μg/ml • Assay medium 1: Epilife® medium supplemented with PE 0.2% • Bovine transferrin 5 μg/ml • EGF 0.2 ng/ml • Insulin 5 μg/ml • Gentamycin/Amphotericin • Assay medium 2: Keratinocyte SFM supplemented with Gentamycin 25 μg/ml
(§3) Keratinocytes were seeded in 96-well plates and cultured for 24 hours in culture medium. […] After pre-incubation, the medium was removed and replacedby assay medium 1 containing or not (stimulated control) the compounds or the reference compound and containing the inducer (PMA tested at 0.5 μg/ml). The cells were then incubated for 24 hours. In parallel, a non-stimulated control condition was performed.
(§4) All experimental conditions were performed in n=3. At the end of incubation, the culture supernatants were collected for IL-8 and PGE2 quantifications.
(§5) IL-8 and PGE2 released in the culture supernatants were measured using specific ELISA kits according to the supplier's instructions.

IL-8 = IL-8 release by PMA-stimulated NHEK (ELISA); type: cell-based, human; settings: for Effect on IL-8 release (in words): PMA-stimulated keratinocytes; for IL-8 release, % Relative inhibition: NHEK, PMA 0.5 μg/ml, 24 h
Protocol: as §1, §2, §3, §4, §5

## CCCCCc1cc(O)c(C/C=C(\C)CCC=C(C)C)c(O)c1C(=O)O [CBGA, cannabigerolic acid, reference compound]
PGE2
  PGE2 release, % of the control: 182%

## C=C(C)[C@@H]1CCC(C)=C[C@H]1c1c(O)cc(CCCCC)cc1O [CBD, cannabidiol, reference compound]
PGE2
  PGE2 release, % of the control: 185%
IL-8; tested at 0.3 μM
  Effect on IL-8 release (in words): overstimulated IL-8 release

## COc1ccc2c(c1)c(CC(=O)O)c(C)n2C(=O)c1ccc(Cl)cc1 [Indomethacin, indomethacin, reference compound]
PGE2; 1 μM
  PGE2 release, % Relative inhibition: >169%

## O=C1O[C@H]([C@@H](O)CO)C(O)=C1O [L-Ascorbic acid, reference compound]
PGE2
  Effect on PGE2 release (in words): overall the same effect at all tested concentrations; also recorded: significantly limited
  PGE2 release, % of relative inhibition: ~145%

## C=C(C)[C@@H]1CCC(C)=C[C@H]1c1c(O)cc(CCCCC)c(C(=O)O)c1O [CBDA, cannabidiolic acid, reference compound]
PGE2
  Effect on PGE2 release (in words): did not modulate

## CCCc1cc(O)c(C/C=C(\C)CCC=C(C)C)c(O)c1C(=O)O [CBGVA, cannabigerovarinic acid]
PGE2; 0.1 μM
  PGE2 release, % Relative inhibition: 19%
PGE2; 0.3 μM
  PGE2 release, % Relative inhibition: 65%
PGE2; 1 μM
  PGE2 release, % Relative inhibition: >162%
PGE2
  Effect on PGE2 release (in words): significant effect only when tested at the highest concentration; also recorded: inhibited
  PGE2 release, % of relative inhibition: about 160%
IL-8; 0.1 μM
  IL-8 release, % Relative inhibition: 2%
IL-8; 0.3 μM
  IL-8 release, % Relative inhibition: 11%
IL-8; 1 μM
  IL-8 release, % Relative inhibition: 9%

## CCCCCc1cc(O)c(C/C=C(\C)CCC=C(C)C)c(O)c1 [CBG, cannabigerol]
PGE2
  Effect on PGE2 release (in words): significant at all tested concentrations; also recorded: significantly inhibited
  PGE2 release, % of relative inhibition: about 160%
IL-8; concentration not given
  Effect on IL-8 release (in words): significantly inhibited
IL-8; tested at 3 (unit not given)
  Effect on IL-8 release (in words): strongly inhibited
